Data from PMC6310130 (Molecular and biochemical parasitology, 2014).
Where a SMILES comes first, the peptide text is derived from it. [ ]: non-standard residue; d: D form. The star is where a group is joined. Sta = CC(C)C[C@H](N)[C@@H](O)CC(=O)O; Isovaleryl = CC(C)CC(=O)*

molecular target: Plasmepsin V (Plasmodium falciparum, UniProt Q8I6Z5); test: fluorogenic HRPII peptide cleavage assay, recombinant refolded enzyme, pH […]; format: biochemical
Sequence (Q8I6Z5 81-521): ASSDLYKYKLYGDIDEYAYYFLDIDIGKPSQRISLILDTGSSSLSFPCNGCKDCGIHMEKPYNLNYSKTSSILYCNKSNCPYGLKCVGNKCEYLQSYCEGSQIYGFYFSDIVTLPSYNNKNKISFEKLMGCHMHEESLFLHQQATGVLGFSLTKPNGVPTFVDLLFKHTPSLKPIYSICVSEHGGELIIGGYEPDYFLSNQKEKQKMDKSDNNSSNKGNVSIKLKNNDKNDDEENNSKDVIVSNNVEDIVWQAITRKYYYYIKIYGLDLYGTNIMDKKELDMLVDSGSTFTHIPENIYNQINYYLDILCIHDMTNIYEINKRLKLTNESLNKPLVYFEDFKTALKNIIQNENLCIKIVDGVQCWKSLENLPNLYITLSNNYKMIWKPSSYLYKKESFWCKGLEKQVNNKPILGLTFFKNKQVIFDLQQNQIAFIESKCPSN

Compound | IC50
CC(C)CC(=O)N[C@H](C(=O)N[C@H](C(=O)N[C@@H](CC(C)C)[C@@H](O)CC(=O)N[C@@H](C)C(=O)N[C@@H](CC(C)C)[C@@H](O)CC(=O)O)C(C)C)C(C)C [pepstatin A] (Isovaleryl-VV[Sta]A[Sta]-OH) | 22 µM
KNI-10742 | 108 µM
KNI-10743 | 44 µM
